Several values for one entry are separate records, joined by “and”; a condition that tells them apart may be missing. Equal entries are not always repeated. Where two headings read alike, the source gives them in different places.
Assay: Continuous infusion study pharmacokinetics (plasma)
Assay type: in vivo, human
Conditions: for dose proportionality of steady-state concentration (Css): continuous infusion 1-12 mg/h; for level at 2 h / level at 168 h / level at 170 h / level at 336 h / level at 338 h / level at 504 h / level at 506 h: iv
Description: Patients with solid tumors received a continuous infusion of 1 mg/h, 2 mg/h, 4 mg/h, 8 mg/h or 12 mg/h. with a weekly change of infusion bag.
Blood samples were taken on Day 1 (first dose) at pre-dose and 2 h after start of infusion and then weekly just before change of infusion bag and 2 hours thereafter for the first 4 weeks.
The following pharmacokinetic parameters were derived at Merck KGaA. Darmstadt, Germany, by mathematical methods using Kinetica Version 4.1.1.
CL the total body clearance of EMD 121974 from plasma Css plasma concentration at steady state ke elimination rate constant Rate infusion rate t1/2, half life V Volume of distribution
Css, the plasma concentration at steady state, has been estimated by the arithmetic mean of all concentration values from time point 168 h to 506 h per patient.
From Css and t1/2 the PK parameters CL, ke and V were calculated as follows: […]

[1] = Rate 12 mg/h, Mean, t1/2 = 4 hours
[2] = human, plasma, 1 mg/h, Rate 1 mg/h, Mean, read-out: EMD 121974 Concentrations, Mean
[3] = human, plasma, 2 mg/h, Rate 2 mg/h, Mean, read-out: EMD 121974 Concentrations, Mean
[4] = human, plasma, 4 mg/h, Rate 4 mg/h, Mean, read-out: EMD 121974 Concentrations, Mean
[5] = human, plasma, 8 mg/h, Rate 8 mg/h, Mean, read-out: EMD 121974 Concentrations, Mean
[6] = human, plasma, 12 mg/h, Rate 12 mg/h, Mean, read-out: EMD 121974 Concentrations, Mean

For CC(C)[C@H]1C(=O)N[C@@H](CCCN=C(N)N)C(=O)NCC(=O)N[C@@H](CC(=O)O)C(=O)N[C@H](Cc2ccccc2)C(=O)N1C [Cilengitide, cyclo-(Arg-Gly-Asp-DPhe-NMeVal)], the “EMD 121974 Concentrations” value (Rate 12 mg/h, 170 h, individual subjects, listed as EMD 121974) was 1130.00 ng/mL and 1770.00 ng/mL and 1340.00 ng/mL, the “EMD 121974 Concentrations” value (Rate 12 mg/h, 336 h, individual subjects, listed as EMD 121974) was 4280.00 ng/mL and 1250.00 ng/mL and 1790.00 ng/mL and the “EMD 121974 Concentrations” value (Rate 12 mg/h, 338 h, individual subjects, listed as EMD 121974) was 1780.00 ng/mL and 1610.00 ng/mL and 1620.00 ng/mL. The “EMD 121974 Concentrations” value (Rate 12 mg/h, 504 h, individual subjects, listed as EMD 121974) was 2220.00 ng/mL and 989.00 ng/mL and 2050.00 ng/mL, the “EMD 121974 Concentrations” value (Rate 12 mg/h, 506 h, individual subjects, listed as EMD 121974) was 1550.00 ng/mL and 1230.00 ng/mL and 1880.00 ng/mL and the CL (Rate 12 mg/h, CL=Rate/Css, individual subjects, listed as EMD 121974) was 7.66 L/h and 6.75 L/h. The “V, Mean” value [1] was 39.5 L, the “ke, Mean” value [1] was 0.173 h⁻¹ and the V (Rate 12 mg/h, V=CL/ke, t1/2 = 4 hours, individual subjects, listed as EMD 121974) was 35.4 L and 44.2 L and 39.0 L. The ke (Rate 12 mg/h, for t1/2 = 4 hours, individual subjects) was 0.173 h⁻¹, the Css (Rate 12 mg/h, mean of 168 h to 506 h values per patient, individual subjects, listed as EMD 121974) was 1956.2 ng/mL and 1566.5 ng/mL and 1776.7 ng/mL and the “time to reach steady state conditions” value (assuming a half-life of 4 hours) was at most 24 h. The “dose proportionality of steady-state concentration (Css)” value (listed as EMD) was “increased proportionally to dose”, the “dose proportionality of steady-state concentration (Css)” value (listed as EMD 121974) was “increase proportional to dose” and the clearance (human, plasma, intravenous, 1 mg/h, Rate 1 mg/h, Mean, read-out: CL, Mean (converted)) was 139 mL/min. The clearance (human, plasma, intravenous, 2 mg/h, Rate 2 mg/h, CL=Rate/Css, individual subjects, read-out: CL (converted)) was 115 mL/min, the clearance (human, plasma, intravenous, 2 mg/h, Rate 2 mg/h, Mean, read-out: CL, Mean (converted)) was 95.3 mL/min and the clearance (human, plasma, intravenous, 4 mg/h, Rate 4 mg/h, CL=Rate/Css, individual subjects, read-out: CL (converted)) was 107 mL/min. The clearance (human, plasma, intravenous, 4 mg/h, Rate 4 mg/h, Mean, read-out: CL, Mean (converted)) was 109 mL/min, the clearance (human, plasma, intravenous, 8 mg/h, Rate 8 mg/h, Mean, read-out: CL, Mean (converted)) was 112 mL/min and the clearance (human, plasma, intravenous, 12 mg/h, Rate 12 mg/h, CL=Rate/Css, individual subjects, read-out: CL (converted)) was 102 mL/min. The clearance (human, plasma, intravenous, 12 mg/h, Rate 12 mg/h, Mean, read-out: CL, Mean (converted)) was 114 mL/min, the clearance (human, plasma, intravenous, range of dose-group means, 1-12 mg/h, read-out: mean clearance) was 95.3 to 139 mL/min and the Vd (human, plasma, intravenous, range of dose-group means, 1-12 mg/h, t1/2 = 4 hours assumed, read-out: Mean volume of distribution) was 33 to 48 L. The level at 2 h [2] was 39.1 ng/mL, the level at 168 h [2] was 156 ng/mL and the level at 170 h (human, plasma, 1 mg/h, Rate 1 mg/h, 170 h, Mean, read-out: EMD 121974 Concentrations, Mean) was 66.6 ng/mL. It also gave a level at 336 h (human, plasma, 1 mg/h, Rate 1 mg/h, 336 h, Mean, read-out: EMD 121974 Concentrations, Mean) of 209 ng/mL, a level at 338 h (human, plasma, 1 mg/h, Rate 1 mg/h, 338 h, Mean, read-out: EMD 121974 Concentrations, Mean) of 191 ng/mL and a level at 504 h (human, plasma, 1 mg/h, Rate 1 mg/h, 504 h, Mean, read-out: EMD 121974 Concentrations, Mean) of 62.1 ng/mL. The level at 504 h (human, plasma, 1 mg/h, Rate 1 mg/h, 504 h, individual subjects, read-out: EMD 121974 Concentrations) was 62.1 ng/mL, the level at 506 h (human, plasma, 1 mg/h, Rate 1 mg/h, 506 h, Mean, read-out: EMD 121974 Concentrations, Mean) was 109 ng/mL and the level at 506 h (human, plasma, 1 mg/h, Rate 1 mg/h, 506 h, individual subjects, read-out: EMD 121974 Concentrations) was 94.4 ng/mL. The level at 2 h [3] was 162 ng/mL, the level at 168 h [3] was 344 ng/mL and the level at 170 h (human, plasma, 2 mg/h, Rate 2 mg/h, 170 h, Mean, read-out: EMD 121974 Concentrations, Mean) was 280 ng/mL. It also gave a level at 336 h (human, plasma, 2 mg/h, Rate 2 mg/h, 336 h, Mean, read-out: EMD 121974 Concentrations, Mean) of 495 ng/mL, a level at 338 h (human, plasma, 2 mg/h, Rate 2 mg/h, 338 h, Mean, read-out: EMD 121974 Concentrations, Mean) of 360 ng/mL and a level at 504 h (human, plasma, 2 mg/h, Rate 2 mg/h, 504 h, Mean, read-out: EMD 121974 Concentrations, Mean) of 376 ng/mL. The level at 506 h (human, plasma, 2 mg/h, Rate 2 mg/h, 506 h, Mean, read-out: EMD 121974 Concentrations, Mean) was 337 ng/mL, the level at 2 h [4] was 328 ng/mL and the level at 168 h [4] was 626 ng/mL. It also gave a level at 170 h (human, plasma, 4 mg/h, Rate 4 mg/h, 170 h, Mean, read-out: EMD 121974 Concentrations, Mean) of 516 ng/mL, a level at 336 h (human, plasma, 4 mg/h, Rate 4 mg/h, 336 h, Mean, read-out: EMD 121974 Concentrations, Mean) of 726 ng/mL and a level at 338 h (human, plasma, 4 mg/h, Rate 4 mg/h, 338 h, Mean, read-out: EMD 121974 Concentrations, Mean) of 559 ng/mL. It also gave a level at 504 h (human, plasma, 4 mg/h, Rate 4 mg/h, 504 h, Mean, read-out: EMD 121974 Concentrations, Mean) of 665 ng/mL, a level at 506 h (human, plasma, 4 mg/h, Rate 4 mg/h, 506 h, Mean, read-out: EMD 121974 Concentrations, Mean) of 681 ng/mL and a level at 2 h [5] of 503 ng/mL. For the same compound, the level at 168 h [5] was 1460 ng/mL, the level at 170 h (human, plasma, 8 mg/h, Rate 8 mg/h, 170 h, Mean, read-out: EMD 121974 Concentrations, Mean) was 1210 ng/mL and the level at 336 h (human, plasma, 8 mg/h, Rate 8 mg/h, 336 h, Mean, read-out: EMD 121974 Concentrations, Mean) was 525 ng/mL. The level at 338 h (human, plasma, 8 mg/h, Rate 8 mg/h, 338 h, Mean, read-out: EMD 121974 Concentrations, Mean) was 972 ng/mL, the level at 504 h (human, plasma, 8 mg/h, Rate 8 mg/h, 504 h, Mean, read-out: EMD 121974 Concentrations, Mean) was 1630 ng/mL and the level at 506 h (human, plasma, 8 mg/h, Rate 8 mg/h, 506 h, Mean, read-out: EMD 121974 Concentrations, Mean) was 1290 ng/mL. The level at 2 h [6] was 499 ng/mL, the level at 168 h [6] was 1770 ng/mL and the level at 170 h (human, plasma, 12 mg/h, Rate 12 mg/h, 170 h, Mean, read-out: EMD 121974 Concentrations, Mean) was 1410 ng/mL. For the same compound, the level at 336 h (human, plasma, 12 mg/h, Rate 12 mg/h, 336 h, Mean, read-out: EMD 121974 Concentrations, Mean) was 2440 ng/mL, the level at 338 h (human, plasma, 12 mg/h, Rate 12 mg/h, 338 h, Mean, read-out: EMD 121974 Concentrations, Mean) was 1670 ng/mL and the level at 504 h (human, plasma, 12 mg/h, Rate 12 mg/h, 504 h, Mean, read-out: EMD 121974 Concentrations, Mean) was 1750 ng/mL. For the same compound, the level at 506 h (human, plasma, 12 mg/h, Rate 12 mg/h, 506 h, Mean, read-out: EMD 121974 Concentrations, Mean) was 1550 ng/mL.

From patent US20120130146A1, “CONTINUOUS ADMINISTRATION OF CILENGITIDE IN CANCER TREATMENTS” (Merck Patent GmbH, priority 2009, published 2012)
